# According to a melting point compilation (Tetko et al.; mined from patent text by program, amines drawn as free bases though some values may be those of a salt):
# Residues, ends and D or L forms follow the SMILES beside them. *: point of attachment. Cbz = O=C(OCc1ccccc1)*
row,melting point [°C],Structure (SMILES)
1,110 to 111,CN1CCC(c2nn(-c3ccccc3C(F)(F)F)c3ccccc23)CC1
2,172 to 174,CCOC(=O)CNC(=O)c1cn2nc(NCCCN3CCC(OC(c4ccccc4)c4ccccc4)CC3)ccc2n1
3,169 to 170,CC1(C)CCC(C)(C)c2cc(SCc3ccc(C(=O)O)cc3)ccc21
4,57 to 60,Cc1cc(OCc2ccccc2)nc(S(C)(=O)=O)n1
5,188,O=C(NCc1cccnc1)[NH+]([O-])c1cccc2ccccc12 (centres undefined)
6,146 to 148,COc1c(Cc2ccccc2)cc(C(=O)O)c2ccccc12
7,62 to 64,CCc1ccc2c(=O)c3ccccc3ccc2c1
8,240 to 245,COc1cc2c(cc1OC)[C@@H]1CN(C)CC[C@@H]1N=C2c1ccc(NC(=O)c2ccccc2)cc1 (relative stereo)
9,80 to 81,Cc1c(CO)ncc(Br)c1N1CCCCC1
10,217 to 220,COc1ccc(C(=O)Nc2nc3ccc([N+](=O)[O-])cc3c(NCc3cccs3)c2C#N)cc1
11,74 to 75,CC(C)(C)OC(=O)C=Cc1ccc2ccccc2c1
12,> 200,Cc1nc(N2CCc3ccc(F)cc3CC2)c([N+](=O)[O-])c(=O)[nH]1
13,148 to 149,CC1(C)CC(OC(=O)c2ccccc2)CC(C)(C)N1OC(N)=O
14,171 to 172,COc1ccc(OCC(O)CN2CCN(c3ccccc3C(=O)O)CC2)c(C(C)(C)C)c1 (centres undefined)
15,76 to 78,OC1CCC2(CC1)Cc1ccccc1C2
16,244 to 247,CCCOc1ccccc1-c1ccc(C#N)c(=O)[nH]1
17,255 to 258,Cc1cc(O)c2cccc(OCc3c(Cl)ccc([N+](=O)[O-])c3Cl)c2n1
18,149,COc1ccc2ccccc2c1C1CCN(CCCCNC(=O)c2ccc(-c3ccc(Cl)cc3)cc2)CC1
19,170 to 172,O=CNc1ccccc1C1=NN(c2ccc(Cl)cc2)C(=O)C1
20,108 to 109,C(=C\c1nc(COc2ccc(CCCn3cncn3)cc2)co1)/c1ccccc1
21,162 to 163,O=C(NN1CCCCC1)c1nc(-c2ccc(Cl)cc2Cl)n(-c2ccc(Cl)cc2)c1CF

row,melting point [°C],Structure (SMILES)
1,183,Nc1n[nH]c2c(F)c(F)ccc12
2,232 to 233,N#Cc1ccc2c(c1)CCc1nn(-c3ccccn3)c(O)c1-2
3,209 to 210,CCc1nc2c(N)nc(C)c(C)c2n1CCCC(=O)N1CCOCC1
4,131 to 134,CCOC(=O)C1Nc2ccccc2S(=O)(=O)n2cccc21 (centres undefined)
5,192 to 194,O=C(O)CS(=O)(=O)c1cccc(-c2nc(=O)c3ccccc3s2)n1
6,114 to 115,O=C(CO)c1ccc2ccccc2c1
7,157 to 160,"CCN1C(C)CN(CC(=O)NC2(c3cc4ccccc4o3)C(=O)Nc3cc(Cl)cc(Cl)c32)CC1C (single isomer, unassigned; (+))"
8,49 to 51,O=C(c1ccccc1)c1ccncc1Cl
9,149 to 150,CC(C)(C)c1cc(OCc2ccccc2-c2nnn[nH]2)cc(C(C)(C)C)c1O
10,322 to 326,C=CCNc1nc(C2C(=O)Nc3ccc(Br)cc32)c2cn(CCC)nc2n1 (centres undefined)
11,115 to 116,CN(CCc1ccccc1)c1nc(=O)c2cccnc2s1
12,> 250,Cc1nc2c(N)nc3ccccc3c2n1CC1(O)CCC1
13,136 to 137,CSCC1=C(c2ccccc2)C(=O)N(C(C)(C)C(=O)O)CO1
14,186 to 189,CCc1ccc(CC)n1Nc1ccc(N2CCOCC2)nn1
15,158 to 160,Cc1c(CC(=O)O)c2cc(O)ccc2n1C(=O)c1cccc(Cl)c1
16,236 to 238,CCCC=C1SC(=S)N(N=c2sc3ccccc3s2)C1=O
17,128 to 130,Nc1ccc(C(=O)c2ccccc2F)cc1
18,155,Clc1ccc(-c2cc(CCC3CCCNC3)c3ccccc3n2)cc1 (centres undefined)
19,183 to 184,Brc1cc(Cc2ccc3ccccc3c2)cc(Br)c1OCc1nnn[nH]1
20,105 to 106,C(=C\C1CCCCC1)/c1nc2ccccc2n1-c1ccccn1

# The next lines start with the compound.
row,Structure (SMILES),melting point [°C]
1,COC(=O)Cc1sc(Sc2cc(C(=O)OC)nc(SC)n2)nc1C,131 to 133
2,O=c1[nH]c2cc(Cl)cc(OCCNCc3ccsc3)c2[nH]1,> 250
3,CC(=O)Nc1nc2c(Oc3cc(-c4ccc(C(F)(F)F)cc4Cl)ncn3)cccc2s1,263 to 264
4,CCCCc1nn2cccc(C(=O)OC)c2c1Cc1ccc(-c2ccccc2C#N)cc1,92 to 95
5,CCCCCS(=O)(=O)NC(=O)/C(=C/c1ccc(OCCOC)cc1Oc1ncc(C(F)(F)F)cc1Cl)CC,104 to 106
6,Cc1ccc(Cl)c(C(=O)c2ccc(Cl)cc2)c1,85 to 90
7,Cc1ccc(S(=O)(=O)CS(C)(=O)=O)cc1,164 to 165
8,Cc1cc(C)c(NC(=O)Nc2c(-c3ccccc3Cl)c3ccncc3n(C)c2=O)c(C)c1,222 to 224
9,N#CC(c1ccc(Cl)c(Cl)c1)c1c(Cl)cc(N)cc1Cl (centres undefined),191 to 194
10,CCCCCCCCc1c(C)nc2cc(C)nn2c1N,169
11,O=C1Cc2cc(Br)ccc2Oc2cc(O)cc(O)c21,112 to 117
12,CC(C)NC(=O)c1cc(N(C)C)cc(Oc2cccc(C(F)(F)F)c2)n1,108 to 110
13,Cc1ccc(S(=O)(=O)NC(CC(N)=O)C(=O)O)cc1 (centres undefined),198 to 200
14,CC(C)(C)OC(=O)NC(CC(=O)OCc1ccccc1)C(=O)C(C#N)=P(c1ccccc1)(c1ccccc1)c1ccccc1 (centres undefined),42 to 44
15,CCC(C)Cc1ccc(C(=O)O)cc1C#N (centres undefined),91.2 to 92.1
16,CSc1ccc(NC(=O)NCc2cc(C(C)(C)C)c(O)c(C(C)(C)C)c2)cc1,141 to 145
17,NS(=O)(=O)c1cc(CCNC(=O)/C=C/c2cccs2)ccc1-c1ccco1,165 to 166
18,Nc1cc(Nc2cccc(Cl)c2)ncn1,171 to 172
19,COc1cc(OC)c(C(=O)CCCCCl)c(OC)c1,53 to 55
20,Cc1ccc(C2c3c(C)c(-n4cc5cc6c(cc5c4)OCO6)c(C)c(C)c3OC2(C)C)cc1 (centres undefined),236 to 242

row,Structure (SMILES),melting point [°C]
1,CCOC(=O)C=C(C)c1ccc(C=CC=C(C)CCC=C(C)C)cc1,32 to 32.5
2,CC(C)(C)OC(=O)N[C@@H](CC1CCCCC1)[C@@H]1C[C@@H](C2(O)CCCCC2)C(=O)O1,133 to 134
3,CCC(=O)C1=C(O)CC(c2c(C)c(C)c(C)c(C)c2C)CC1=O (centres undefined),84
4,C=C(CBr)S(=O)(=O)C(C)(C)C,40.5 to 42
5,COc1cc(Nc2c(C#N)cnc3cc(F)ccc23)c(Cl)cc1Cl,199 to 201
6,CCCOc1ccc(Nc2c([N+](=O)[O-])ccc(Cl)c2C(=O)O)cc1,194 to 196
7,Cc1ccc2c3c(ccc2n1)OCC(CN1CCC(C#N)(c2ccccc2)CC1)O3 (centres undefined),185 to 187
8,COc1ccc(CNC(SC)=C(C#N)C#N)cc1,100 to 101
9,O=C(CCCCCCC(=O)c1ccc(O)cc1)c1ccc(O)cc1,196 to 198
10,COC(=O)c1ccc(C(=O)Nc2ccc(C)c(Nc3nc(-c4cccnc4)cs3)c2)cc1,195
11,CCNC(=O)C(C)NC(=O)C(C)NC(=O)C1CCCN1C(=O)OCc1ccccc1 (stereo not drawn) (Cbz-Pro-Ala-Ala-NHEt; configuration not given here),219 to 220
12,Cc1c(C)c(NC(=O)CC(C)(C)C)c2c(c1C)C(c1ccc(C(C)C)cc1)CO2 (centres undefined),190 to 191
13,COc1cc(CN2CCN(c3ccccc3F)CC2)ccc1OC(=O)N(C)C,130 to 133
14,COC(=O)c1ccc(NC(=O)c2cc(C(C)C)c(C(C)C)o2)s1,175 to 177
15,CS(=O)(=O)c1ccc(-c2cnn(-c3ccc(F)cc3)c(=O)c2S(=O)(=O)c2ccccc2)cc1,203 to 204
16,CNC(=O)Nc1c(C)nn(-c2cc(OC(C)C)c(Cl)cc2F)c1C,184 to 185
17,CCOC(=O)CC(=O)c1ccc(C)nn1,79
18,CCCOc1ccc(-c2ccc3c(c2)C=C(C(=O)OC)CCN3C=O)cc1,152 to 153
19,COC(=O)CCc1cccc(OCCC2Oc3ccccc3N(Cc3cccc(Cl)c3)C2=O)c1 (centres undefined),92 to 94
20,CC(C)(C#N)c1c(Cl)cc(-n2nc(C(=O)O)c(=O)[nH]c2=O)cc1Cl,157

row,Structure (SMILES),melting point [°C]
1,CC(=O)NCc1ccc(C(C)Cl)cc1 (centres undefined),58 to 62
2,O=C(N[C@@H](Cc1ccccc1)[C@@H](O)[C@H](O)[C@H](Cc1ccccc1)NC(=O)OCc1cccnc1)OCc1cccnc1,180 to 186
3,N#Cc1ccc(CN2C(=O)C3(COc4cc5c(cc43)CCO5)c3ccccc32)cc1 (centres undefined),69 to 71
4,O=C(O)c1cc(-c2ccc(OCc3ccccc3)cc2OCc2ccccc2)no1,192 to 193
5,CCCCCCCCOC(=O)/C=C/c1ccccc1C1C(C(=O)OCC)=C(C)NC(C)=C1C(=O)OCC,110 to 112
6,C=CCOc1ccc(F)cc1-c1ccccc1-c1ccccc1,48 to 49
7,O=C(Nc1cccc(Cl)c1)c1cc(Br)ccc1O,231 to 232
8,O=C1C2CCCCN2C(=O)N1c1ccc([N+](=O)[O-])c2ccccc12 (centres undefined),190 to 192
9,CC(C)C[C@H](N)C(=O)N1CCN(C(c2ccc(F)cc2)c2ccc(F)cc2)CC1,61 to 68
10,Nc1nc2[nH]c(CCC#Cc3cscc3C(=O)N[C@@H](CCC(=O)O)C(=O)O)cc2c(=O)[nH]1,181 to 182
11,COc1cc(C(C)C)nn1C,114 to 115
12,CNC(=O)c1sc2cnccc2c1Oc1ccc(COC)cc1,163 to 164
13,CC#CCOc1ccc(S(=O)(=O)NC[C@@H](C(=O)NO)N2CCN(S(C)(=O)=O)CC2)cc1,150
14,CN=C(Cl)c1ccc([N+](=O)[O-])cc1,67 to 73
15,CCCCOc1ccc2c(c1)C(N(CC(=O)NC(=N)N)S(C)(=O)=O)CC(C)(C)O2 (centres undefined),112 to 114
16,N#Cc1cc(F)c(N)c(Br)c1F,106 to 108
17,N#Cc1cccnc1N1CCN(CC(=O)Nc2cccc(C(F)(F)F)c2F)CC1,118 to 121
18,Cc1nnc2n1-c1ccc([N+](=O)[O-])cc1C(c1ccccc1Cl)=NC2(C)C,283
